The supplement of paper PMC11061612

What was measured:
[1] = test system: TK (B-Cell Non-Hodgkin's Lymphoma); assay: combination Emax (second highest fraction inhibited in the dose matrix, 72 h); higher = more inhibition; extreme values may be limits of the assay
Method in brief: (§1)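 Bliss excess equals the observed combination effect minus the expected value EA + EB − EA·EB, where EA and EB are the effects of each agent alone. Combination Emax is the second-highest inhibition within the matrix. Inhibition was scaled from CellTiter-Glo 2.0 luminescence, with 0 set by vehicle wells and 1 by blank wells, after 72 hours of two-drug dosing of cells plated in 1536-well plates.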

[2] = test system: SUP-HD1 (Hodgkin's Lymphoma); assay: as above
Method in brief: as §1

[3] = test system: BT-474 (Breast Carcinoma); assay: as above
Method in brief: as §1

[4] = test system: NCI-H2023 (Non-Small Cell Lung Carcinoma); assay: as above
Method in brief: as §1

[5] = test system: RS4-11 (B-Lymphoblastic Leukemia); assay: as above
Method in brief: as §1

[6] = test system: NCI-H1944 (Lung Adenocarcinoma); assay: as above
Method in brief: as §1

[7] = test system: NCI-H1048 (Small Cell Lung Carcinoma); assay: as above
Method in brief: as §1

[8] = test system: SBC-3 (Small Cell Lung Carcinoma); assay: as above
Method in brief: as §1

GCIY (Gastric Carcinoma) = assay: as above
Method in brief: as §1

[9] = test system: SW1463 (Colorectal Carcinoma); assay: as above
Method in brief: as §1

[10] = test system: OVKATE (Ovarian Carcinoma); assay: as above
Method in brief: as §1

[11] = test system: NTERA-2-cl-D1 (Other Solid Carcinomas); assay: as above
Method in brief: as §1

[12] = test system: RPMI-8402 (T-Lymphoblastic Leukemia); assay: Bliss excess, mean over the matrix (fraction); higher = more synergy
Method in brief: as §1

[13] = test system: MRK-nu-1 (Breast Carcinoma); assay: as above
Method in brief: as §1

A375 (Melanoma) = assay: as above
Method in brief: as §1

[14] = test system: SBC-5 (Small Cell Lung Carcinoma); assay: as above
Method in brief: as §1

[15] = test system: HT-1197 (Bladder Carcinoma); assay: as above
Method in brief: as §1

[16] = test system: NCI-H2023 (Non-Small Cell Lung Carcinoma); assay: as above
Method in brief: as §1

NCI-H2452 (Mesothelioma) = assay: as above
Method in brief: as §1

[17] = test system: SCC90 (Head and Neck Carcinoma); assay: as above
Method in brief: as §1

SMILES	combination Emax [1]	combination Emax [2]	combination Emax [3]	combination Emax [4]	combination Emax [5]	combination Emax [6]	combination Emax [7]	combination Emax [8]	combination Emax (GCIY (Gastric Carcinoma))	combination Emax [9]	combination Emax [10]	combination Emax [11]	Bliss excess [12]	Bliss excess [13]	Bliss excess (A375 (Melanoma))	Bliss excess [14]	Bliss excess [15]	Bliss excess [16]	Bliss excess (NCI-H2452 (Mesothelioma))	Bliss excess [17]
CN(CCO)CC[C@H](CSc1ccccc1)Nc1ccc(S(=O)(=O)NC(=O)c2ccc(N3CCC([C@@H](O)c4ccccc4-c4ccc(Cl)cc4)CC3)cc2)cc1S(=O)(=O)C(F)(F)F [AZD4320] + CN(C)CCCOc1ccc(-c2ccc3ncc4c(c3c2)n(C2CCOCC2)c(=O)n4C)cn1 [AZD0156] (first compound max 1 µM, 7x7, partner max 1 µM)	0.998	0.961	0.211	0.22	1	0.322	0.622	0.163	0.554	0.233	0.29	0.416	0.0188	-0.0133	-0.0357	-0.0481	-0.0506	-0.0922	-0.0287	0.0037
CN(C)CCCOc1ccc(-c2ccc3ncc4c(c3c2)n(C2CCOCC2)c(=O)n4C)cn1 [AZD0156] + O=C(c1cc(Cc2n[nH]c(=O)c3ccccc23)ccc1F)N1CCN(C(=O)C2CC2)CC1 [Olaparib] (first compound max 3 µM, partner max 3 µM)	0.18	0.166	0.27	0.369	0.497	0.49	0.352	0.465	0.418	0.169	0.214	0.162	0.244	-0.0198	0.0591	0.0732	-0.0404	0.0234	0.12	-0.0621
Cn1cnc2c(F)c(Nc3ccc(Br)cc3Cl)c(C(=O)NOCCO)cc21 [Selumetinib] + CCN(CCO)CCCOc1ccc2c(Nc3cc(CC(=O)Nc4cccc(F)c4)[nH]n3)ncnc2c1 [AZD2811] (first compound max 10 µM, 7x7, partner max 1 µM)	0.262	0.453	0.0839	0.275	0.937	0.381	0.611	0.482	0.371	0.678	0.176	0.382	0.0136	0.045	-0.0274	-0.0253	-0.0073	-0.0294	-0.0726	0.0116
CCc1c2c(nc3ccc(O)cc13)-c1cc3c(c(=O)n1C2)COC(=O)[C@]3(O)CC [SN-38] + CN(C)CCCOc1ccc(-c2ccc3ncc4c(c3c2)n(C2CCOCC2)c(=O)n4C)cn1 [AZD0156] (first compound max 0.3 µM, 7x7, partner max 1 µM)	0.991	0.907	0.0708	0.834	0.984	0.686	0.968	0.919	0.8	0.634	0.224	0.958	0.073	-0.0534	0.0168	0.0245	-0.0537	-0.0017	-0.0197	0.0059
